Results on 29 molecules are retold here after patent publication US6281209A, “Fungicidal alkoximinomethyldioxazine derivatives” (Bayer Aktiengesellschaft, priority 1997, dated 2001).

In general, logP refers to a log measure of how a compound divides between an organic and an aqueous phase.

Like-named read-outs stand apart in the source and are kept apart here.

The nature of series [1]: phys. data (logP), Table 1. In kind it is physicochemical.
The next series has as its system Plasmopara viticola. In words: Plasmopara Test (Grapevine)/Protective. Type of series: in vivo. Conditions: protective, 100 g/ha, evaluated 6 days after inoculation. The protocol: Plasmopara Test (Grapevine)/Protective Solvent: 47 parts by weight of acetone Emulsifier: 3 parts by weight of alkylaryl polyglycol ether To produce a suitable preparation of active compound, 1 part by weight of active compound is mixed with the stated amounts of solvent and emulsifier, and the concentrate is diluted with water to the desired concentration. To test for protective activity, the young plants are sprayed with the preparation of active compound at the stated application rate. After the spray coating has dried on, the plants are inoculated with an aqueous spore suspension of Plasmopara viticola and then remain in an incubation cabin at approximately 20° C. and 100% relative atmospheric humidity for 1 day. The plants are subsequently placed in a greenhouse at approximately 21° C. and approximately 90% relative atmospheric humidity for 5 days. The plants are then moistened and placed in an incubation cabin for 1 day.

The subject of a further series is Venturia inaequalis. Put plainly: Venturia Test (Apple)/Protective. Type of series: in vivo. Conditions: protective, 10 g/ha, evaluated 12 days after inoculation. The protocol: Venturia Test (Apple)/Protective Solvent: 47 parts by weight of acetone Emulsifier: 3 parts by weight of alkylaryl polyglycol ether To produce a suitable preparation of active compound, 1 part by weight of active compound is mixed with the stated amounts of solvent and emulsifier, and the concentrate is diluted with water to the desired concentration. To test for protective activity, young plants are sprayed with the preparation of active compound at the stated application rate. After the spray coating has dried on, the plants are inoculated with an aqueous conidia suspension of the causative organism of apple scab Venturia inaequalis and then remain in an incubation cabin at approximately 20° C. 100% relative atmospheric humidity for 1 day. The plants are then placed in the greenhouse at approximately 21° C. and a relative atmospheric humidity of approximately 90%.

For the next series, the system named is Leptosphaeria nodorum. In words: Leptosphaeria Nodorum Test (Wheat)/Protective. The settings on record: protective, 25 g/ha, evaluated 10 days after inoculation. Type of series: in vivo. The protocol: Leptosphaeria Nodorum Test (Wheat)/Protective Solvent: 10 parts by weight of N-methyl-pyrrolidone Emulsifier: 0.6 parts by weight of alkylaryl polyglycol ether To produce a suitable preparation of active compound, 1 part by weight of active compound is mixed with the stated amounts of solvent and emulsifier, and the concentrate is diluted with water to the desired concentration. To test for protective activity, young plants are sprayed with the preparation of active compound at the stated application rate. After the spray coating has dried on, the plants are sprayed with a spore suspension of Leptosphaeria nodorum. The plants remain in an incubation cabin at 20° C. and 100% relative atmospheric humidity for 48 hours.

The subject of a further series is Pyricularia oryzae. Type of series: in vivo. The settings on record: rice, protective, 750 g/ha, contact time of one day, evaluated 4 days after inoculation.

`CON=C(C1=NOCCO1)c1ccccc1OC(=O)C=C(C)c1cccc(Br)c1` [Example 4]: the logP in series [1] (read-out: logP) stood at 3.72. For the same molecule, the “efficacy in comparison with the untreated control” value in the series on Plasmopara viticola is “up to 100%”; with Leptosphaeria nodorum, 70%. Further, the “efficacy in comparison with the untreated controls” value with Venturia inaequalis was “up to 100%”. Regarding `CON=C(C1=NOCCO1)c1ccccc1OC(=O)C=C(C)c1cccc(C)c1` [Example 17], the lipophilicity (logP) in series [1] (read-out: logP) came out at 3.58.

In the case of `CON=C(C1=NOCCO1)c1ccccc1OC(=O)C=C(C)c1ccc(C)cc1` [Example 8], in series [1] (read-out: logP), the logP was determined as 3.58. Also, the results for the “efficacy in comparison with the untreated control” value with Plasmopara viticola and with Pyricularia oryzae were “up to 100%” and “more than 80%”, respectively. The “efficacy in comparison with the untreated controls” value in the series on Venturia inaequalis is given as “up to 100%”. In the case of `CON=C(C1=NOCCO1)c1ccccc1OC(=O)C=C(C)c1ccccc1C` [Example 47], in series [1] (read-out: logP), the logP was found to be 3.48. In the case of `CCCOc1ccccc1C(C)=CC(=O)Oc1ccccc1C(=NOC)C1=NOCCO1` [Example 26], the lipophilicity (logP) in series [1] (read-out: logP) stood at 3.98.

As for `CON=C(C1=NOCCO1)c1ccccc1OC(=O)C=C(C)c1ccc(OC)cc1` [Example 21], in series [1] (read-out: logP), the logP stood at 3.19. Same read-out and setting: the value for `CON=C(C1=NOCCO1)c1ccccc1OC(=O)C=C(C)c1ccc(Br)cc1` [Example 10] was 3.78. Same read-out and setting: the result for `CON=C(C1=NOCCO1)c1ccccc1OC(=O)C=C(C)c1ccccc1OC` [Example 42] reads 3.28. As for `CON=C(C1=NOCCO1)c1ccccc1OC(=O)C=C(C)c1cc(Cl)ccc1Cl` [Example 14], the lipophilicity (logP) in series [1] (read-out: logP) was 3.93. In the case of `CON=C(C1=NOCCO1)c1ccccc1OC(=O)C=C(C)c1ccccc1` [Example 6], the log partition coefficient (logP) in series [1] (read-out: logP) is 3.22. Besides, in the series with Plasmopara viticola, the “efficacy in comparison with the untreated control” value is “up to 100%”. The “efficacy in comparison with the untreated controls” value in the series on Venturia inaequalis is recorded as “up to 100%”. Consider `CON=C(C1=NOCCO1)c1cc(C)ccc1OC(=O)C=C(C)c1cccc(Cl)c1` [Example 32], for which, in series [1] (read-out: logP), the logP was determined as 3.9.

For the molecule `CON=C(C1=NOCCO1)c1ccccc1OC(=O)C=C(C)c1cccc(C(F)(F)F)c1` [Example 1, 2-[(5,6-dihydro-[1,4,2]dioxazin-3-yl)-methoxyiminomethyl]-phenyl 3-(3-trifluoromethylphenyl)-but-2-enoate], in the series with Plasmopara viticola, the “efficacy in comparison with the untreated control” value is on record as “up to 100%”. Also, in the series on Venturia inaequalis, the “efficacy in comparison with the untreated controls” value is “up to 100%”. Regarding `CON=C(C1=NOCCO1)c1ccccc1OC(=O)C=C(C)c1cccc(OC)c1` [Example 5], the logP in series [1] (read-out: logP) worked out at 3.22. Moreover, the “efficacy in comparison with the untreated control” value with Plasmopara viticola is on record as “up to 100%”. For the same molecule, in the series on Venturia inaequalis, the “efficacy in comparison with the untreated controls” value was “up to 100%”. On to `CON=C(C1=NOCCO1)c1ccccc1OC(=O)C=C(C)c1cc(C)ccc1C` [Example 44], for which the logP in series [1] (read-out: logP) turned out to be 3.85. Same read-out and setting: the value for `CON=C(C1=NOCCO1)c1ccccc1OC(=O)C=C(C)c1ccc(Cl)nc1` [Example 46] was 2.75; that for `CON=C(C1=NOCCO1)c1ccccc1OC(=O)C=C(C)c1ccccc1C(F)(F)F` [Example 43] was 3.58.

For `CON=C(C1=NOCCO1)c1ccccc1OC(=O)C=C(C)COc1cccc(C(F)(F)F)c1` [Example 3], the “efficacy in comparison with the untreated control” value in the series with Pyricularia oryzae is “more than 80%”. With `CON=C(C1=NOCC(C)O1)c1ccccc1OC(=O)C=C(C)c1ccc(C(F)(F)F)cc1` (stereo not drawn) [Example 22], the logP in series [1] (read-out: logP) came out at 4.02. Still for that read-out and setting: the result for `CON=C(C1=NOCC(C)(C)O1)c1ccccc1OC(=O)C=C(C)c1ccc(C(F)(F)F)cc1` [Example 23] reads 4.23. As to `CON=C(C1=NOCCO1)c1ccccc1OC(=O)C=C(C)c1ccccc1OC(C)C` [Example 24], the logP in series [1] (read-out: logP) worked out at 3.87. As for `CON=C(C1=NOCCO1)c1ccccc1OC(=O)C=C(C)c1ccccc1F` [Example 29], the logP in series [1] (read-out: logP) is 3.25.

As for `CCc1cccc(C(C)=CC(=O)Oc2ccccc2C(=NOC)C2=NOCCO2)c1` [Example 9], the logP in series [1] (read-out: logP) is 3.91. The “efficacy in comparison with the untreated control” value in the series on Plasmopara viticola is recorded as “up to 100%”; with Pyricularia oryzae, “more than 80%”. Further, the “efficacy in comparison with the untreated controls” value with Venturia inaequalis was “up to 100%”. Turning to `CON=C(C1=NOCCO1)c1ccccc1OC(=O)C=C(C)c1ccc(F)cc1` [Example 20], the logP in series [1] (read-out: logP) turned out to be 3.28. `CON=C(C1=NOCCO1)c1ccccc1OC(=O)C=C(C)c1ccc(C)cc1` [Example 13]: in series [1], the logP is on record as 4.06. `CON=C(C1=NOCCO1)c1ccccc1OC(=O)C=C(C)c1ccccc1Br` [Example 45]: the logP in series [1] (read-out: logP) was found to be 3.58. Turning to `CCOc1ccc(C(C)=CC(=O)Oc2ccccc2C(=NOC)C2=NOCCO2)cc1` [Example 12], the logP in series [1] (read-out: logP) stood at 3.57.

`CON=C(C1=NOCCO1)c1ccccc1OC(=O)C=C(C)c1cccc(Cl)c1` [Example 19]: the logP in series [1] (read-out: logP) turned out to be 3.64. On the same count and under the same terms, the value for `CCOc1ccccc1C(C)=CC(=O)Oc1ccccc1C(=NOC)C1=NOCCO1` [Example 25] was 3.63. For the molecule `CON=C(C1=NOCCO1)c1ccccc1OC(=O)C=C(C)c1ccc(C(F)(F)F)cc1` [Example 7], in series [1] (read-out: logP), the lipophilicity (logP) was 3.81. The “efficacy in comparison with the untreated controls” value in the series with Venturia inaequalis is “up to 100%”. For the same molecule, the “efficacy in comparison with the untreated control” value in the series with Pyricularia oryzae is “more than 80%”.
